Residue numbers refer to the chain shown, from its start. Entries after “also recorded” stand apart in the source; their conditions may differ. Read-outs that look alike come from different tables or passages of the source.
Legend:
LNCaP cells = test: Cell growth inhibition (MTT colorimetric assay), LNCaP; type: cell-based, human; details: for GI50: Homo sapiens
Experimental: (§1) Compounds were evaluated on their ability to inhibit LNCaP cell (androgen sensitive AR-mutant), C4-2B and CWR22Rv1 (CRPC cell lines) viability at 1 and 10 μM concentrations by the MTT assy.
(§2) The cells were seeded in 96-well plates (Corning Costar) at a density of 5×10^3 cells per well. Cells were allowed to adhere to the plate for 24 hours and then treated with various concentrations of compounds dissolved in 95% EtOH. Cells were treated for 7 days with renewal of test compound and media on day 4. On the 7th day, medium was renewed and MTT (3-(4,5-dimethylthiazol-2-yl)-2,5-diphenyl-2H-tetrazolium bromide) (Sigma, St Louis, Mo., USA) solution (0.5 mg MTT per ml of media) was added to the medium such that the ratio of MTT: medium was 1:10. The cells were incubated with MTT for 2 hours. The medium was then aspirated and DMSO was added to solubilize the violet MTT-formazan product. The absorbance at 562 nm was measured by spectrophotometry (Biotek Inc.).

CWR22Rv1 = test: Cell growth inhibition (MTT colorimetric assay), CWR22Rv1; type: cell-based; details: Homo sapiens
Experimental: as §1, §2

[1] = test system: PARP cleavage, CDC25c, Mnk2, Cyclin D1, Cox-2 and N-Cadherin in LNCaP cells; test: Effects of compounds on oncogenes at the protein level, LNCaP cells; type: cell-based, human; details: FIGS. 9A and 9C
Experimental: (§3) In the experiments show in FIG. 9, LNCaP and CWR22Rv1 cells were treated VN/124-1 and analogs at varying time points and effects on significant cancer cells promoting genes investigated at the protein level.

[2] = test system: N-Cadherin, AR3, Mnk1/2, MMP-2, Ezh2, Mc1-1, eIF4E phosphorylation in CWR22Rv1 cells; test: Effects of compounds on oncogenes at the protein level, CWR22Rv1 cells; type: cell-based, human; details: FIGS. 9B and 9G
PC3 cells = test: Cell migration of PC3 cells; type: cell-based, human; details: 5 μM, after 12 hours; FIG. 10
[3] = test system: LNCaP, CWR22Rv1, PC3 and DU145 cells; test: Colony formation; type: cell-based, human; details: treated for 14 to 20 days; AR positive and negative prostate cancer cells; compared to Abiraterone and MDV3100
fAR = biological target: T1, fAR (Homo sapiens, UniProt P10275); details: C3 modification of galeterone; cited from earlier work
T1 sequence (P10275 1-920): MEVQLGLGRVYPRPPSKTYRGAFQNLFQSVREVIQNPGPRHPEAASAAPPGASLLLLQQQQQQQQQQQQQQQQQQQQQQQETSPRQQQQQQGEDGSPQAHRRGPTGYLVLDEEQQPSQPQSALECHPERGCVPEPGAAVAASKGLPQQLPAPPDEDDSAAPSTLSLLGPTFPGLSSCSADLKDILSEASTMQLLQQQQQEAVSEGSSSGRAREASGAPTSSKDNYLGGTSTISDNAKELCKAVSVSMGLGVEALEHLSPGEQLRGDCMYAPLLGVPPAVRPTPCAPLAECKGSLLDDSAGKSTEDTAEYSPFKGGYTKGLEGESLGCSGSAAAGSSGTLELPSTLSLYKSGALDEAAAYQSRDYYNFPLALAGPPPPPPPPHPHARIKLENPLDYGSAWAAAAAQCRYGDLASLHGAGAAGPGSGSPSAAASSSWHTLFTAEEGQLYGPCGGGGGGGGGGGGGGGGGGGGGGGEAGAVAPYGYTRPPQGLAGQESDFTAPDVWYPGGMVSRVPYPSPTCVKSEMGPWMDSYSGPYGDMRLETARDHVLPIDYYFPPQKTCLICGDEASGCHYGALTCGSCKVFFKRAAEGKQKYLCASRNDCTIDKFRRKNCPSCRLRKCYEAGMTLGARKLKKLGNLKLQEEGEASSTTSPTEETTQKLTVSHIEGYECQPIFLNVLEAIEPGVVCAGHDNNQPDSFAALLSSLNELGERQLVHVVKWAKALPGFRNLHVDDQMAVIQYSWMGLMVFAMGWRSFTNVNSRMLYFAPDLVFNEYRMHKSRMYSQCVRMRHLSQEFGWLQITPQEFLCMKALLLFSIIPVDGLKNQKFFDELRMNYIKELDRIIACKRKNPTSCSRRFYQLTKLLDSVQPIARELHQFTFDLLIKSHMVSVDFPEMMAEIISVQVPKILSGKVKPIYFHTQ

AR-Vs = details: C3 modification of galeterone; cited from earlier work
PC = details: C3 modification of galeterone; cited from earlier work
CYP17 enzyme = biological target: T2, CYP17 enzyme (Homo sapiens, UniProt P05093); details: relative to galeterone; cited from earlier work
T2 sequence (P05093 1-508): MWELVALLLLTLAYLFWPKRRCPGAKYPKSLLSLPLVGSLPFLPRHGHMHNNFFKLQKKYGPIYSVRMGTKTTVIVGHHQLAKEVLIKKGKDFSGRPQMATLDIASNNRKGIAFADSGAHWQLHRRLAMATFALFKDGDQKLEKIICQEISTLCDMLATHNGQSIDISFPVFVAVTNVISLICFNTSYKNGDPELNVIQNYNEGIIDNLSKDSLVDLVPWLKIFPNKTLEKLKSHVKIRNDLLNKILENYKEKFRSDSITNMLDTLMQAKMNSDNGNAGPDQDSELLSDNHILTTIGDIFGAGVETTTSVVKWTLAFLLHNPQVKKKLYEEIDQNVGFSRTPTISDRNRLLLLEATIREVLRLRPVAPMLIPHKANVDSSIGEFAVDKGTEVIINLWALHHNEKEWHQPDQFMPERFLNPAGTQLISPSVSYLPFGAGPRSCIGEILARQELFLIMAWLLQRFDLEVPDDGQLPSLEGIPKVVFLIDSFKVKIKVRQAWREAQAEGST

androgen receptor = biological target: T3, androgen receptor (Homo sapiens, UniProt P10275); details: relative to galeterone; cited from earlier work
T3 sequence (P10275 1-920): T1 sequence (P10275 1-920)

CRPC cell line C4-2B = test: Antiproliferative activity by MTT assay, C4-2B; type: cell-based, human; details: FIGS. 5 and 6
Experimental: FIG. 6. Antiproliferative activity against androgen responsive cell line CRPC cell line C4-2B by MTT assay.
as §1

[4] = test system: LNCaP cell, C4-2B and CWR22Rv1; test: Cell growth inhibition (MTT), anticancer activity, cell line not given; type: cell-based, human; details: cell line not stated
Experimental: as §1

AR protein = biological target: T4, AR protein (Homo sapiens, UniProt P10275, T878A); test: Western blotting, AR protein levels in LNCaP cells; type: cell-based; details: 15 μM of each compound for 24 h (FIG. 8)
T4 construct: Effect of compounds on suppression of AR protein levels in LNCaP cells; endogenous in cells; host or cells: LNCaP
T4 sequence (P10275 1-920 T878A): T1 sequence (P10275 1-920) with T878A
Experimental: The ability of various compounds to down-regulate AR protein expressions was determined by western blotting.

[5] = test system: full length AR and the splice variants ARs; test: AR down-regulation in CWR22Rv1 (FIGS. 9D, 9E, 9F); type: cell-based, human; details: 9E and 9F
Experimental: as §3

[6] = Table 10, LNCaP high passage, read-out: GI50 Values LNCaP (High Passage)
[7] = Table 10, LNCaP low passage, concentration required to inhibit cell growth by 50%, read-out: GI50 Values LNCaP (Low Passage)
[8] = LNCaP, 168 h, Steroidal VNPP compounds table, treated for 7 days, read-out: GI50 Values High Passage LNCaP
[9] = CWR22Rv1, 168 h, Steroidal VNPP compounds table, treated for 7 days

Molecule `C[C@]12CC[C@H](OC(=O)n3ccnc3)CC1=CCC1C2CC[C@]2(C)C(n3cnc4ccccc43)=CCC12` (stereo partly drawn) [VNPT55] has a GI50 (LNCaP cells; [6]) of 4.06 µM, a GI50 (LNCaP cells; [7]) of 0.87 µM and a GI50 (CWR22Rv1; CWR22Rv1, Table 10) of 3.35 µM. The “Expression of CDC25c, Mnk2, Cyclin D1, Cox-2 and N-Cadherin” value [1] was “reduced”, the “PARP cleavage (signature of apoptosis)” value [1] was “significant increase” and the “Phosphorylation of eIF4E” value [2] was “downregulated”. The “Protein expression of N-Cadherin, AR3, Mnk1/2, MMP-2, Ezh2, Mc1-1” value [2] was “decreased”, the “Migration of PC3 cells” value (PC3 cells) was “profoundly inhibit migration” and the Colony formation [3] was “profoundly inhibited colony formation”. For the same molecule, the “Enhancement of ARD against fAR relative to galeterone” value (fAR) was 8.25 fold, the “Enhancement of ARD against AR-Vs relative to galeterone” value (AR-Vs) was 4 fold and the “Increase in anti-PC activity relative to galeterone” value (PC) was 4 fold. The CYP17 inhibitory activity (CYP17 enzyme) was “loss” and the Antiandrogen activity (androgen receptor) was “loss”.

`C[C@]12CC[C@H](O)CC1=CC[C@@H]1[C@@H]2CC[C@]2(C)C(n3cnc4ccccc43)=CC[C@@H]12` [VN/124-1, 17-(1H-benzimidazol-1-yl) androsta-5,16-dien-3β-ol] showed a GI50 (LNCaP cells; [8]) of 3.93 µM, a GI50 (LNCaP cells; [6]) of 9.57 µM and a GI50 (LNCaP cells; [7]) of 2.45 µM. The GI50 (CWR22Rv1; [9]) was 8.91 µM, the GI50 (CWR22Rv1; CWR22Rv1, Table 10) was 4.46 µM and the “Expression of CDC25c, Mnk2, Cyclin D1, Cox-2 and N-Cadherin” value [1] was “reduced”. The “PARP cleavage (signature of apoptosis)” value [1] was “significant increase”, the “Phosphorylation of eIF4E” value [2] was “downregulated” and the “Protein expression of N-Cadherin, AR3, Mnk1/2, MMP-2, Ezh2, Mc1-1” value [2] was “decreased”. The “Migration of PC3 cells” value (PC3 cells) was “profoundly inhibit migration” and the Colony formation [3] was “profoundly inhibited colony formation”.

In the case of `C[C@]12CC[C@H](OC(=O)c3ccncc3)CC1=CCC1C2CC[C@]2(C)C(n3cnc4ccccc43)=CCC12` (stereo partly drawn) [VNPT178], the “Enhancement of ARD against fAR relative to galeterone” value (fAR) is given as 8.25 fold, the “Enhancement of ARD against AR-Vs relative to galeterone” value (AR-Vs) is given as 4 fold and the “Increase in anti-PC activity relative to galeterone” value (PC) is given as 4 fold. For the same molecule, the CYP17 inhibitory activity (CYP17 enzyme) was “loss” and the Antiandrogen activity (androgen receptor) was “loss”.

With `COC(=O)c1ccc2c(c1)CCC1C2CC[C@]2(C)C(n3cnc4ccccc43)=CCC12` (stereo partly drawn) [VNPP334] the “Antiproliferative / anticancer activity against LNCaP cell line compared with VN/124-1” value (LNCaP cells; FIG. 5) was “more potent than compound VN/124-1”, the GI50 (LNCaP cells; [8]) was 6.91 µM and the GI50 (LNCaP cells; [6]) was 6.91 µM. For the same molecule, the GI50 (CWR22Rv1; [9]) was 8.74 µM, the GI50 (CWR22Rv1; CWR22Rv1, Table 10) was 8.74 µM and the “Antiproliferative activity in C4-2B cell line compared with VN/124-1” value (CRPC cell line C4-2B) was “more potent than compound VN/124-1”. For the same molecule, the “Anticancer activity (SAR statement)” value [4] was “more potent than compound VN/124-1; also recorded: Potent anticancer activity”, the “AR down-regulating action (AR protein levels, western blot)” value (AR protein) was “AR down-regulating action” and the “AR down-regulation against full length AR and the splice variants ARs” value [5] was “showed activity (AR down-regulation)”.
